Results from patent publication US8153408B2, “Biocatalytic racemisation of alpha-hydroxyketones” (BASF SE, priority 2006, dated 2012).

Tests used:
[1] = tested on: rehydrated lyophilised (resting) cells of Lactobacillus paracasei subsp. paracasei DSM 20207; assay: Biocatalytic racemisation of acyloins 1-4 by whole resting cells; type: cell-based; settings: L. paracasei DSM 20207 cells; for Relative Rate (initial rate of racemisation relative to (R)-1 arbitrarily set as standard (100%)): aqueous BIS-TRIS buffer pH 6, 42° C.; for racemisation rate (in words): aqueous buffer at pH 6; for Racemization (extent of racemisation under standard conditions after 24 h): pH 6, 42° C.
Experimental: (§1) After 3 days, the cells were harvested by centrifugation (18000*g), lyophilised and stored at +4° C. For the biocatalytic racemisation, 50 mg of whole lyophilised cells were rehydrated in 0.5 ml aqueous BIS-TRIS buffer (50 mM, 10^−2 M MgCl2, pH 6) for 1 h at 42° C. with shaking at 150 rpm. Substrates 1-4 (5 mg) were added followed by shaking of the reaction mixture with 150 rpm at 42° C. for 24 h, 48 h and 72 h. Then the reaction mixture was extracted with ethyl acetate and the organic phase was dried over sodium sulfate. The organic phase was evaporated under reduced pressure and the residue was dissolved in HPLC-eluent. The determination the enantiomeric excess of the substrate was carried out by HPLC on a chiral stationary phase. Analysis of the enantiomeric composition versus time gave the initial rates of racemisation, which are represented as % with respect to substrate (R)-1 sert as standard (100%).
(§2) The biocatalytic racemisation of acyloins 1-4 was performed using rehydrated lyophilised (resting) cells of Lactobacillus paracasei subsp. paracasei DSM 20207 in aqueous buffer at pH 6, the racemisation of acyloins 5-6 by using rehydrated lyophilised (resting) cells of Lactobacillus halotoleransi DSM 20190.

[2] = tested on: rehydrated lyophilised (resting) cells of Lactobacillus halotoleransi DSM 20190; assay: Biocatalytic racemisation of acyloins 5-6 by whole resting cells; type: cell-based, Lactobacillus halotolerans DSM 20190; settings: L. halotolerans DSM 20190 cells; for Relative Rate (initial rate of racemisation relative to (R)-1 arbitrarily set as standard (100%)): aqueous BIS-TRIS buffer pH 6, 42° C.; for Racemization (extent of racemisation under standard conditions after 24 h): pH 6, 42° C.
Experimental: as §1, §2

SMILES	Relative Rate (initial rate of racemisation relative to (R)-1 arbitrarily set as standard (100%)) [1]	racemisation rate (in words) [1]	Racemization (extent of racemisation under standard conditions after 24 h) [1]	racemisation (in words) [2]	Relative Rate (initial rate of racemisation relative to (R)-1 arbitrarily set as standard (100%)) [2]	Racemization (extent of racemisation under standard conditions after 24 h) [2]
C[C@@H](O)C(=O)c1ccccc1 [(R)-4, (R)-2-hydroxypropiophenone]	65%	slightly reduced	46%			
O=C1c2ccccc2C[C@H]1O [(R)-6, (R)-2-Hydroxyindane-1-one]				high racemisation	58%	84%
CC(=O)[C@H](O)c1ccccc1 [(R)-3, (R)-phenylacetylcarbinol]	67%	High racemisation rates	50%			
O=C1c2ccccc2CC[C@H]1O [(R)-5, (R)-2-Hydroxy-1,2,3,4-tetranaphtalin-1-one]				high racemisation	77%	92%
CC(=O)[C@@H](C)O [(R)-1, acetoin]	100%	fast racemisation rate	86%			
